Results on 4 compounds are retold here after patent US5736556A, “Tropane-2-aldoxime derivatives as nevro transmitter reuptake inhibitors” (NeuroSearch A/S, priority 1994, dated 1998).

Data set [1] has as its target T1, ^3 H-noradrenaline uptake (noradrenaline transporter) (Rattus norvegicus, UniProt Q63380).
T1 construct: Hippocampi from male Wistar rats (150-200 g) are homogenized; from tissue; host or cells: P2 synaptosomes of hippocampus, male Wistar rats
The experiment in a line: In vitro inhibition of ^3 H-noradrenaline (^3 H-NA) uptake in hippocampal synaptosomes. In kind it is biochemical, rat (male Wistar). Conditions: ^3 H-NA 1 nM, 90 min at 37° C. The source says: (§1) The compounds of the invention have also been tested for their ability to inhibit reuptake of dopamine(DA) noradrenalin(NA) and serotonin(5-HT) in synaptosomes.
(§2) Specific neurotransmitter transporters/uptake sites on nerve terminals presumably function to terminate neuronal signaling by removing the neurotransmitters dopamine, noradrenaline and serotonin, respectively, from the synaptic cleft. The activity of the transporter integral proteins can be measured in vitro by synaptosomal uptake of ^3 H-dopamine, ^3 H-noradrenaline and ^3 H-serotonine, respectively.
In vitro inhibition of ^3 H-noradrenaline (^3 H-NA) uptake in hippocampal synaptosomes
(§3) Tissue preparation: Preparations are performed at 0°-4° C. unless otherwise indicated. Hippocampi from male Wistar rats (150-200 g) are homogenized for 5-10 sec in 100 volumes of ice-cold 0.32M sucrose containing 1 mM pargyline using an Ultra-Turrax homogenizer. Monoamine oxidase activity will be inhibited in the presence of pargyline. The homogenate is centrifuged at 1000×g for 10 min. The resulting supernatant is then centrifuged at 27,000×g for 50 min and the supernatant is discarded. The pellet (P2) is resuspended in oxygenated (equilibrated with an atmosphere of 96% O2 : 4% CO2 for at least 30 min) Krebs-Ringer incubation buffer (2000 ml per g of original tissue) at pH 7.2 containing 122 mM NaCl, 0.16 mM EDTA, 4.8 mM KCl, 12.7 mM Na2 HPO4, 3.0 mM NaH2 PO4, 1.2 mM MgSO4, 0.97 mM CaCl2, 10 mM glucose and 1 mM ascorbic acid.
Assay: Aliquots of 4.0 ml tissue suspension are added to 100 μl of test solution and 100 μl of ^3 H-NA (1 nM, final concentration), mixed and incubated for 90 min at 37° C. Non-specific uptake is determined using desipramine (1 μM, final concentration). After incubation the samples are poured directly onto Whatman GF/C glass fibre filters under suction. […] The amount of radioactivity on the filters is determined by conventional liquid scintillation counting. Specific uptake is calculated as the difference between total uptake and non-specific uptake. […]

Data set [2] has as its target T2, dopamine transporter (^3 H-dopamine uptake) (Rattus norvegicus, UniProt P23977).
T2 construct: Corpi striati from male Wistar rats (150-200 g) are homogenized; from tissue; host or cells: P2 synaptosomes of corpus striatum, male Wistar rats
The experiment in a line: In vitro inhibition of ^3 H-dopamine (^3 H-DA) uptake in striatal synaptosomes. In kind it is biochemical, rat (male Wistar). Conditions: ^3 H-DA 1 nM, 25 min at 37° C.
Excerpt: as §1, §2
In vitro inhibition of ^3 H-dopamine (^3 H-DA) uptake in striatal synaptosomes
as §3, with “Tissue preparations:” for “Tissue preparation:”, “indicated. Corpi striati” for “indicated. Hippocampi”, “resulting supermatant” for “resulting supernatant”, “buffer (8000” for “buffer (2000”, “MgSO4, 1” for “MgSO4, 0.97”
Assay: Aliquots of 4.0 ml tissue suspension are added to 100 μl of test solution and 100 μl of ^3 H-DA (1 nM, final concentration), mixed and incubated for 25 min at 37° C. Non-specific uptake is determined using benztropine (10 μM, final concentration). After incubation the samples are poured directly onto Whatman GF/C glass fibre filters under suction. […] The amount of radioactivity on the filters is determined by conventional liquid scintillation counting. Specific uptake is calculated as the difference between total uptake and non-specific uptake. […]

Data set [3] deals with stereotyped behaviour of the rat. The experiment in a line: Abnormal stereotyped behaviour (side effect profile). Format: in vivo. Also on record: key to Activity (high intensity stereotypy): +: only stereotyped sniffing; ++: stereotyped sniffing and episodic licking; +++: continuous licking and/or biting gnawing. The source says: Side Effect Profile of the Compounds of the Present Invention
The side effects of cocaine and the central stimulant amphetamine derivatives involve central excitement and stimulation in animals including primates and these effects can also be observed in humans. A serious side effect of cocaine and of the amphetamine derivatives includes also the ability to provoke toxic psychotic symptoms closely resembling the mental disease schizophrenia and these include halucinations, paranoia and abnormal bizarre stereotyped mental activity and stereotypy.
The induction of stereotyped abnormal behavior in rodents thus also represents one of the most used animal models of schizophrenia in models for antipsychotic neuroleptic drugs (including haloperidol and chlorpromazine).
The development of toxic abnormal stereotyped amphetamine syndrome as described below may predict a toxic central stimulant side effect of dopamine releasing compounds in humans.
Classification of the Abnormal Stereotyped Behaviour
In general, the abnormal stereotyped behaviour after administration of amphetamine and cocaine-like central stimulant drugs can be classified into "low" and "high" intensity scores of stereotyped behaviour. […]

Data set [4] has as its system MPTP-induced Parkinsonism in Marmoset Monkeys. The data set is described as follows: Antagonism of MTPT-induced Parkinsonism in Marmoset Monkeys. Format: in vivo, common marmoset. Conditions: MPTP-treated marmosets, oral gavage, 0.1 to 2.5 mg/kg; for locomotor activity: 10 h. The source says: Antagonism of MTPT-induced Parkinsonism in Marmoset Monkeys
Administration of MPTP (1-methyl-4-phenyl-1,2,3,6-tetrahydropyridine, hydrochloride) to monkeys induce a lesion of the dopaminergic system in the brain and gives rise to parkinsonian symptoms. By subsequent administration of test-compounds, the ability of the compounds to alleviate the parkinsonian signs can be tested.
Common marmosets (weighing 350-400 g, aged 3-5 years and of either sex) were used in the study. Animals were housed alone under standard conditions at a temperature of […] and 50% relative humidity using a 12 hour light-dark cycle. Animals had free access to food and Water.
Some months before locomotor or behavioural testing began, animals were treated with MPTP (1-methyl-4-phenyl-1,2,3,6-tetrahydropyridine, hydrochloride) dissolved in sterile 0.9% saline in doses of 2 mg/kg administered subcutaneously daily for 5 days or until a clear parkinsonian state developed. The cumulative doses administered ranged between 8-12 mg/kg. During MPTP treatment and throughout the following 2-3 weeks the animals were hand fed until they had recovered enough to be able to feed themselves.
Test compounds was dissolved in 100% Tween 80 with warming to 40°-50° C. and then diluted with water. Test compounds was given by oral gavage in a volume of 2 ml/kg. In addition test compound vehicle was administered on each experimental day for comparison with drug treatments. Each animal was treated with vehicle or one of the three doses of test compound over the following weeks, with a one week period of recovery between treatments.
Rating of disability: The disability of animals were scored as follows; alertness (normal 0, sleepy 2); reaction to stimuli (normal 0, reduced 1, slow 2, absent 3); checking movements (present 0, reduced 1, absent 2); attention and eye movements (normal 0, abnormal 1); posture (normal 0, abnormal trunk 1, abnormal limbs 1, abnormal tail 1, or grossly abnormal 4); balance/coordination (normal 0, impaired 1, unstable 2, spontaneous falls 3); vocalization (normal 0, reduced 1, absent 2).
Measurement of locomotor activity: Locomotor activity was measured simultaneously for four individual animals each in a metal cage (50 w×60 l×70 h cm) with transparent plastic doors (50 w×70 h cm) similar to the home cages but fitted with eight horizontally orientated infrared photocells. […] Locomotor counts were measured as the number of light beam interuptions which occured as the animals moved about. These movement counts were accumulated in 30 minutes intervals and recorded for the 10 h duration of experimentation.
Data analysis: The mean (±) s.e.m. was calculated for time courses and accumulated locomotor counts or behavioural disability scores for the different treatment groups.

The target of data set [5] is T3, dopamine transporter (Rattus norvegicus, UniProt P23977).
T3 construct: Corpus striatum from male Wistar rats (150-200 g) is homogenized; from tissue; host or cells: corpus striatum of male Wistar rats
Conditions: background, in vitro, in words; cited from earlier work.

Data set [6] concerns the target dopamine transporter (Mus musculus, UniProt Q61327). As to conditions: cited from earlier work.
In data set [7] the target is T2, dopamine transporter (^3 H-dopamine uptake). As to conditions: background, in words; cited from earlier work.

Sequence of dopamine transporter (Mus musculus, UniProt Q61327) (Q61327 whole entry): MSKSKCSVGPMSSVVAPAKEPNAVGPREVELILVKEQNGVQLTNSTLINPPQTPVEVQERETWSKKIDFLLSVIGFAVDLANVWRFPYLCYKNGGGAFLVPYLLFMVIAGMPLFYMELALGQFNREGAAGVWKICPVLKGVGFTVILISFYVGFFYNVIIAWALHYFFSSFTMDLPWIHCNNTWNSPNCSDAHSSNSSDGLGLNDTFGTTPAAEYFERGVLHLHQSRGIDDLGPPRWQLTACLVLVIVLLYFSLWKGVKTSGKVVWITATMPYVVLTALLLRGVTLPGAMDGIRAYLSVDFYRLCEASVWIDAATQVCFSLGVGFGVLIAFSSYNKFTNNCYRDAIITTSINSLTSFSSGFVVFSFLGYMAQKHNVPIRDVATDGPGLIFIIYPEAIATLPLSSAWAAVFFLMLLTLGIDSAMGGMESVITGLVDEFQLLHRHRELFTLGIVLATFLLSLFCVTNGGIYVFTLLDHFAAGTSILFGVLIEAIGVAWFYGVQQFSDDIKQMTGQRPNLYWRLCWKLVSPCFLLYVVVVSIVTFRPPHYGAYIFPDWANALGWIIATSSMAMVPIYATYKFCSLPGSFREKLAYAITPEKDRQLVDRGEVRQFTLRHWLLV
T3 sequence (P23977 whole entry): as the sequence (Q61327 whole entry) above, with P21S, V57A, S194A, R600H, V619L counted along it
T2 sequence (P23977 whole entry): as the sequence (Q61327 whole entry) above, with P21S, V57A, S194A, R600H, V619L counted along it
T1 sequence (Q63380 1-617): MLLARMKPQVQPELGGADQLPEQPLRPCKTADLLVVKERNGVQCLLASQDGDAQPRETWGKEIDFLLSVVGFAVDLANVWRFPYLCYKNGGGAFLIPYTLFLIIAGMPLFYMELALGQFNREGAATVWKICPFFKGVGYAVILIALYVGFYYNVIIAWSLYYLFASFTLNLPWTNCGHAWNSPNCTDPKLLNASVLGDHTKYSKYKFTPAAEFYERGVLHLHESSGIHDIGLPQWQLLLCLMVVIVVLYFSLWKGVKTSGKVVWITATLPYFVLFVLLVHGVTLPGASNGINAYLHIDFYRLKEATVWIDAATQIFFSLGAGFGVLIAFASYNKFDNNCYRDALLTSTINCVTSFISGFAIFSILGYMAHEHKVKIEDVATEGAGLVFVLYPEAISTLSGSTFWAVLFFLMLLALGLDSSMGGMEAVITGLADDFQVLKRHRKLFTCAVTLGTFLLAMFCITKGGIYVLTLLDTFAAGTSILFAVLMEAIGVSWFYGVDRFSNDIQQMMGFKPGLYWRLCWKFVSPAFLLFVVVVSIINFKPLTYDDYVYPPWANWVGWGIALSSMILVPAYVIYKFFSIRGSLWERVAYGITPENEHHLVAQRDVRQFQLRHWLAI

Usually IC50 stands for the concentration that inhibits the measured activity by half. `CON=C[C@@H]1[C@@H](c2ccc(Cl)c(Cl)c2)C[C@@H]2CC[C@H]1N2C` (single isomer, unassigned) [(1R,2R,3S)-3-(3,4-dichlorophenyl)-tropane 2-O-methyl-aldoxime, syn-isomere]: the results for the IC50 in data set [1] and in data set [2] were 1.5 nM and 3.4 nM, respectively.

With `CON=C[C@@H]1[C@@H](c2ccc(Cl)c(Cl)c2)C[C@@H]2CC[C@H]1N2C` [NS2214, (1R,2R,3S)-3-(3,4-dichlorophenyl)tropane-2O-methyl-aldoxime], the “Activity (high intensity stereotypy)” value in data set [3] (15 mg/kg p.o.) is on record as “+++”. The “lowest dosis giving the activity indicated (stereotypy +++)” value in data set [3] (p.o.) was determined as 15 mg/kg. Further, in data set [4], the disability scores result is listed as “dose-dependent decrease in disability scores” and the locomotor activity entry is listed as “dose dependent increase in locomotor activity”. Further, in data set [4] (listed as NS 2214), the locomotor activity result is listed as “dose-dependent increase in locomotor activity” and the disability scores result was “dose dependent decrease in disability scores”.

As for `COC(=O)[C@H]1[C@@H](c2ccc(F)cc2)C[C@@H]2CC[C@H]1N2C` [^3 H-WIN 35428], the “binding to the dopamine transporter” value in data set [5] was “binds selectively and with high affinity to the dopamine transporter complex”. Besides, in data set [6] (in vivo, iv), the “time to maximum of specific binding in the striatum” value was 30 min.

With `COC(=O)[C@H]1[C@@H](OC(=O)c2ccccc2)C[C@@H]2CC[C@H]1N2C` [cocaine], the “inhibition of ^3 H-dopamine uptake” value in data set [7] is recorded as “inhibits ^3 H-dopamine uptake”. Moreover, the “binding to the dopamine transporter” value in data set [5] is given as “binds to the dopamine transporter”. Moreover, the “prevention of specific binding of ^3 H-WIN 35428 in vivo” value in data set [6] is listed as “partly or completely prevented”.
